Measured values from publication PMC5065625, “Structure-mechanism-based engineering of chemical regulators targeting distinct pathological factors in Alzheimer's disease” (Nature Communications, 2016).

How the values were obtained:
[1] = system: 5 × FAD mice; assay: Tolerability and body weight during 30-day treatment; format: in vivo, mouse
Description: The amyloidogenic characteristics of 5 × FAD mice have been described previously. In brief, 5 × FAD mice express the Swedish/London/Florida mutations of the human amyloid precursor protein (hAPP) and the M146L/L286V mutations of the human presenilin-1 (PSEN1). They develop the early and robust pathology of AD with the cognitive and behavioural impairments. The 5 × FAD mice have been widely used to test the possible efficacy of a compound targeted for AD[25][29]. We maintained the mice on a C57BL/6 × SJL hybrid background. All animal experiments were performed in accordance with the guidelines of the Asan Institute for Life Science for Laboratory Animal Care and Use (Seoul, Korea), where the animals had free access to water and food, and were housed on 12 h light/12 h dark cycle.
(§1) Chemicals used were freshly prepared shortly before administration to the animals. We treated 5 × FAD mice with 1 (1 mg kg^−1 of body weight) or the vehicle (1% v/v DMSO in 20 mM HEPES, pH 7.4, 150 mM NaCl) starting at 3 months of age, which is the same method used in our previous studies. 1 was daily injected into the lower abdomen of the 5 × FAD mice for 30 days.

[2] = system: 5 × FAD AD mouse model; assay: Morris water maze test; format: in vivo; conditions: 1 mg kg^−1 daily i.p., 30 days
Method: as §1
Mice were subjected to the Morris water maze test to assess their performance of spatial learning and memory. The water maze was a circular plastic pool (120 cm diameter) and filled with murky water (21.0±1.0 °C). A cylindrical escape platform (15 cm diameter) stood 0.5 cm under the water surface. Three hours after the 30th compound treatment, the mice were allowed the first training to swim and find the hidden escape platform in the water with three repeats per training. Thereafter, they daily tried the task on the next 4 consecutive days. Three hours after the final escape test, the platform was removed, and the mice exercised a probe trial for 60 s. The animal performance was traced with SMART Video Tracking System (Harvard Apparatus, Holliston, MA, USA).

[3] = 1 mg kg^−1 daily, intraperitoneal, 30 days, 5 × FAD mice

Nc1ccc(NCc2ccccn2)cc1 [compound 1, N^1-(pyridin-2-ylmethyl)benzene-1,4-diamine]
Body weight versus vehicle-treated mice [1, 3]: no difference in body weight
Tolerability of repeated treatments [1, 3]: tolerated the repeated treatments
Body weight, female, day 1 ([1]; 5×FAD mice, 1 mg/kg/day, mean): 20.8 gram
Body weight, female, day 3 ([1]; 5×FAD mice, 1 mg/kg/day, mean): 20.8 gram
Body weight, female, day 6 ([1]; 5×FAD mice, 1 mg/kg/day, mean): 20.8 gram
Body weight, female, day 9 ([1]; 5×FAD mice, 1 mg/kg/day, mean): 21.0 gram
Body weight, female, day 12 ([1]; 5×FAD mice, 1 mg/kg/day, mean): 21.2 gram
Body weight, female, day 15 ([1]; 5×FAD mice, 1 mg/kg/day, mean): 20.8 gram
Body weight, female, day 18 ([1]; 5×FAD mice, 1 mg/kg/day, mean): 21.2 gram
Body weight, female, day 21 ([1]; 5×FAD mice, 1 mg/kg/day, mean): 21.4 gram
Body weight, female, day 24 ([1]; 5×FAD mice, 1 mg/kg/day, mean): 21.4 gram
Body weight, female, day 27 ([1]; 5×FAD mice, 1 mg/kg/day, mean): 21.8 gram
Body weight, female, day 30 ([1]; 5×FAD mice, 1 mg/kg/day, mean): 21.6 gram
Body weight, male, day 1 ([1]; 5×FAD mice, 1 mg/kg/day, mean): 28.0 gram
Body weight, male, day 3 ([1]; 5×FAD mice, 1 mg/kg/day, mean): 27.6 gram
Body weight, male, day 6 ([1]; 5×FAD mice, 1 mg/kg/day, mean): 27.6 gram
Body weight, male, day 9 ([1]; 5×FAD mice, 1 mg/kg/day, mean): 27.8 gram
Body weight, male, day 12 ([1]; 5×FAD mice, 1 mg/kg/day, mean): 27.4 gram
Body weight, male, day 15 ([1]; 5×FAD mice, 1 mg/kg/day, mean): 27.8 gram
Body weight, male, day 18 ([1]; 5×FAD mice, 1 mg/kg/day, mean): 28.0 gram
Body weight, male, day 21 ([1]; 5×FAD mice, 1 mg/kg/day, mean): 27.8 gram
Body weight, male, day 24 ([1]; 5×FAD mice, 1 mg/kg/day, mean): 27.6 gram
Body weight, male, day 27 ([1]; 5×FAD mice, 1 mg/kg/day, mean): 28.0 gram
Body weight, male, day 30 ([1]; 5×FAD mice, 1 mg/kg/day, mean): 27.0 gram
Finding the hidden escape platform (trial trainings) [2]: faster than the vehicle-treated 5 × FAD mice
Probe trials, long-term spatial memory [2]: significant improvement of the long-term spatial memory
